Assay results reported in patent US7138361B2, “Herbicidal heterocycles” (E. I. du Pont de Nemours and Company, priority 2000, dated 2006).

What was measured:
Assay type in all cases: in vivo
[1] = tested on: Surinam grass (Brachiaria decumbens); test: Test C preemergence
Outline: (§1)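 Test chemicals, formulated in a non-phytotoxic solvent mixture with surfactant, were applied preemergence to planted seeds or postemergence to plants 2 to 18 cm tall (1- to 4-leaf stage). After 12 to 14 days in a greenhouse, injury was visually rated against untreated controls on a 0–100 scale.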

[2] = tested on: pigweed (Amaranthus retroflexus); test: Test C preemergence
Outline: as §1

[3] = tested on: goosegrass (Eleusine indica); test: Test C preemergence
Outline: as §1

[4] = tested on: lambsquarters (Chenopodium album); test: Test C preemergence
Outline: as §1

[5] = tested on: corn (Zea mays); test: Test C preemergence
Outline: as §1

[6] = tested on: giant foxtail (Setaria faberii); test: Test C preemergence
Outline: as §1

[7] = tested on: bermudagrass (Cynodon dactylon); test: Test C preemergence
Outline: as §1

[8] = tested on: cocklebur (Xanthium strumarium); test: Test C preemergence; conditions: for Plant response rating, Cocklebur: scale 0 to 100, 0 no effect, 100 complete control
Outline: as §1

[9] = tested on: johnsongrass (Sorghum halepense); test: Test C preemergence
Outline: as §1

[10] = tested on: kochia (Kochia scoparia); test: Test C preemergence; conditions: for Plant response rating, Kochia: scale 0 to 100, 0 no effect, 100 complete control
Outline: as §1

[11] = tested on: common ragweed (Ambrosia elatior); test: Test C preemergence
Outline: as §1

[12] = tested on: Nightshade; test: Test C preemergence
[13] = tested on: morningglory (Ipomoea hederacea); test: Test C preemergence; conditions: preemergence
Outline: as §1

[14] = tested on: yellow nutsedge (Cyperus esculentus); test: Test C preemergence
Outline: as §1

[15] = tested on: velvetleaf (Abutilon theophrasti); test: Test C preemergence; conditions: preemergence
Outline: as §1

[16] = tested on: soybean (Glycine max); test: Test C preemergence
Outline: as §1

[17] = tested on: Sunflower; test: Test C preemergence; conditions: Rate 125 g/ha; scale 0 to 100, 0 no effect, 100 complete control
[18] = tested on: crabgrass (Digitaria sanguinalis); test: Test C preemergence
Outline: as §1

[19] = tested on: woolly cupgrass (Eriochloa villosa); test: Test C preemergence
Outline: as §1

[20] = tested on: duck salad (Heteranthera limosa); test: Test C flooded paddy test; conditions: for Plant response rating, Ducksalad: scale 0 to 100 (0 no effect, 100 complete control)
Outline: (§2)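 Visual injury score, 0 (no effect) to 100 (complete control), relative to controls. Paddy plants treated at 2-leaf stage; greenhouse hold 12–14 d before rating.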

[21] = tested on: rice (Oryza saliva); test: Test C flooded paddy test; conditions: for Plant response rating, Rice: scale 0 to 100 (0 no effect, 100 complete control)
Outline: as §2

[22] = tested on: smallflower flatsedge (Cyperus difformis); test: Test C flooded paddy test; conditions: for Plant response rating, Flatsedge: scale 0 to 100 (0 no effect, 100 complete control)
Outline: as §2

[23] = tested on: Nightshade; test: Test C preemergence; conditions: Rate 500 g/ha, visual evaluation after 12 to 14 days
[24] = Rate 125 g/ha, scale 0 to 100, 0 no effect, 100 complete control
[25] = preemergence, Rate 62 g/ha, scale 0 to 100
[26] = preemergence, Rate 500 g/ha, visual evaluation after 12 to 14 days
[27] = preemergence, Rate 250 g/ha, scale 0 to 100, 0 no effect, 100 complete control
[28] = Rate 250 g/ha, scale 0 to 100, 0 no effect, 100 complete control
[29] = Rate 500 g/ha, visual evaluation after 12 to 14 days
[30] = Flooded Paddy, Rate 500 g/ha, scale 0 to 100, 0 no effect, 100 complete control
[31] = flooded paddy test, Rate 125 g/ha
[32] = flooded paddy test, Rate 250 g/ha
[33] = flooded paddy test, Rate 62 g/ha, visually evaluated after 12 to 14 days, 0 = no effect, 100 = complete control

CCCC(C)c1ccn(C2OCN(c3cccc(OC(F)F)c3)C2=O)n1 (stereo not drawn) [Compound 132]
20: Plant response rating, Nightshade [12, 28] | Plant response rating, Soybean [16, 24] | Plant response rating, Soybean [16, 25] | Plant response rating, Soybean [16, 27] | Plant response rating, Sunflower [17] | Plant response rating, Ducksalad [20, 31] | Plant response rating, Rice [21, 31] | Plant response rating, Rice [21, 32] | Plant response rating (0 to 100), Nightshade [23]
40: Plant response rating, Ducksalad [20, 32]
30: Plant response rating, Pigweed [2, 24] | Plant response rating (0 to 100), Soybean [16, 26]
10: Plant response rating, Corn [5, 24]
90: Plant response rating, Surinam grass [1, 25] | Plant response rating (0 to 100), Corn [5, 26] | Plant response rating (0 to 100), Nutsedge [14, 26] | Plant response rating, Cupgrass, Woolly [19, 25] | Rice plant response rating [21, 30] | Flatsedge plant response rating [22, 30] | Plant response rating, Flatsedge [22, 31] | Plant response rating, Flatsedge [22, 32] | Plant response rating (scale 0 to 100), Flatsedge [22, 33]
50: Plant response rating, Johnsongrass [9, 25]
100: Plant response rating, Surinam grass [1, 24] | Plant response rating (0 to 100), Surinam grass [1, 26] | Plant response rating, Surinam grass [1, 27] | Plant response rating (0 to 100), Pigweed [2, 26] | Plant response rating, Goosegrass [3, 24] | Plant response rating, Goosegrass [3, 25] | Plant response rating (0 to 100), Goosegrass [3, 26] | Plant response rating, Goosegrass [3, 27] | Plant response rating, Lambsquarters [4, 24] | Plant response rating, Lambsquarters [4, 25] | Plant response rating (0 to 100), Lambsquarters [4, 26] | Plant response rating, Lambsquarters [4, 27] | Plant response rating (0 to 100), Foxtail, Giant [6, 26] | Plant response rating, Foxtail, Giant [6, 27] | Plant response rating, Bermudagrass [7, 24] | Plant response rating, Bermudagrass [7, 25] | Plant response rating (0 to 100 where 0 is no effect and 100 is complete control), Bermudagrass [7, 26] | Plant response rating, Bermudagrass [7, 27] | Plant response rating (0 to 100), Johnsongrass [9, 26] | Plant response rating, Johnsongrass [9, 27] | Plant response rating, Kochia ([10]; Rate 125 g/ha) | Plant response rating (0 to 100), Kochia [10, 26] | Plant response rating, Kochia ([10]; preemergence, Rate 250 g/ha) | Plant response rating, Crabgrass [18, 24] | Plant response rating, Crabgrass [18, 25] | Plant response rating (0 to 100), Crabgrass [18, 26] | Plant response rating, Crabgrass [18, 27] | Plant response rating, Cupgrass, Woolly [19, 24] | Plant response rating (0 to 100), Cupgrass, Woolly [19, 26] | Plant response rating, Cupgrass, Woolly [19, 27]
70: Plant response rating, Pigweed [2, 27] | Plant response rating, Corn [5, 27] | Plant response rating, Foxtail, Giant [6, 24] | Plant response rating, Foxtail, Giant [6, 25]
0: Plant response rating, Pigweed [2, 25] | Plant response rating, Corn [5, 25] | Plant response rating, Cocklebur ([8]; Rate 125 g/ha) | Plant response rating (0 to 100), Cocklebur [8, 26] | Plant response rating, Cocklebur ([8]; preemergence, Rate 250 g/ha) | Plant response rating, Ragweed, Common [11, 24] | Plant response rating, Ragweed, Common [11, 25] | Plant response rating (0 to 100), Ragweed, Common [11, 26] | Plant response rating, Ragweed, Common [11, 27] | Plant response rating, Nightshade ([12]; Rate 62 g/ha, scale 0 to 100) | Plant response rating, Nightshade [12, 24] | Plant response rating, Morningglory ([13]; Rate 62 g/ha, scale 0 to 100) | Plant response rating (0 to 100), Morningglory [13, 29] | Plant response rating, Morningglory [13, 28] | Plant response rating, Nutsedge [14, 24] | Plant response rating, Nutsedge [14, 25] | Plant response rating, Nutsedge [14, 27] | Plant response rating, Velvetleaf ([15]; Rate 62 g/ha, scale 0 to 100) | Plant response rating (0 to 100), Velvetleaf [15, 29] | Plant response rating, Velvetleaf [15, 28] | Plant response rating (scale 0 to 100), Ducksalad [20, 33] | Plant response rating (scale 0 to 100), Rice [21, 33]
80: Plant response rating, Johnsongrass [9, 24] | Ducksalad plant response rating [20, 30]
